Like-named read-outs stand apart in the source and are kept apart here.
Key:
Type in all cases: cell-based
[1] = system: KRAS-G12V mutant tumor cells SW620; assay: Cell Proliferation Inhibition Assay (SW620), Cell-titer GLO, 96 h; settings: Homo sapiens, SW-620, 96 h, read-out: SW620(G12V)
Procedure: (§1) KRAS-G12V mutant tumor cells SW620 were seeded in low-attachment 96-well plates at a cell density of 1×10^3 cells/well and cultured overnight in a cell culture incubator. After the cells adhered, the test compounds were added to the 96-well plates at final concentrations of 10000, 2000, 400, 80, 16, 3.2, 0.64, 0.13, 0.03, 0 nM (final concentration of DMSO was 0.5% for all). After incubation at 37°C for 96 h, 50 µL of Cell-titer GLO working solution was added to each well, mixed by shaking, incubated at room temperature for 10 min, and the Luminescence value was read on a multi-function microplate reader. The luminescence data were calculated and converted into inhibition percent. The inhibition percent of cell proliferation was calculated according to the following formula: Inhibition Percent = (MaxValue−MeasuredValue)/(MaxValue−Blank) × 100% [formula]
("Max Value" comes from the 0.5% DMSO control well, "Blank" comes from the blank control well, and "Measured Value" comes from the compound-treated well).
Curve fitting was performed using GraphPad Prism software to obtain IC50 values, see Table 1.

[2] = system: KRAS-G12D mutant tumor cells AGS; assay: Cell Proliferation Inhibition Assay (AGS), Cell-titer GLO, 96 h; settings: Homo sapiens, AGS, 96 h, read-out: AGS(G12D)
Procedure: as §1, with “KRAS-G12D” for “KRAS-G12V”, “AGS” for “SW620”, “After the cells adhered, the test compounds were added to the 96-well plates at final concentrations of 10000, 2000, 400, 80, 16, 3.2, 0.64, 0.13, 0.03, 0 nM (final concentration of DMSO was 0.5% for all).” left out, “[formula] […] Curve fitting was performed using GraphPad Prism software to obtain IC50 values, see Table 1.” for “[formula]”

[3] = target: T1, KRAS G12V-cRAF (Homo sapiens, UniProt P01116, G12V); assay: Cellular KRAS G12V-cRAF Binding Inhibition Assay (NanoBRET, AD293 stable cells); settings: 3 h incubation
T1 construct: expressed in transfected cells
T1 sequence (P01116 1-188 isoform P01116-2 G12V): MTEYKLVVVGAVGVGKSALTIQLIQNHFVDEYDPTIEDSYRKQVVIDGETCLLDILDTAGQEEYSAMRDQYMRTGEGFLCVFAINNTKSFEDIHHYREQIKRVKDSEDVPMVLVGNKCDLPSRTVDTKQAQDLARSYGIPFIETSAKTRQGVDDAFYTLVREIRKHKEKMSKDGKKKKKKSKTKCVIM
Procedure: NanoLuc® luciferase was used as the energy donor, and NanoBRET™ 618 fluorescent ligand labeled with the HaloTag® protein was used as the energy acceptor to detect protein-protein interactions in living cells. […] Except for wells with medium added as a blank control, NanoBRET™ 618 fluorescent ligand was added to all other wells, and the plates were cultured overnight in a cell culture incubator. […] The luminescence data were calculated and converted into inhibition percent. The inhibition percent of KRAS G12V-cRAF binding was calculated according to the following formula: Inhibition Percent = (MaxValue−MeasuredValue)/(MaxValue−Blank) × 100% [formula] […] Curve fitting was performed using GraphPad Prism software to obtain IC50 values, see Table 1.

[4] = target: T2, KRAS G12D-cRAF (Homo sapiens, UniProt P01116, G12D); assay: Cellular KRAS G12D-cRAF Binding Inhibition Assay (NanoBRET, AD293 stable cells); settings: 3 h incubation
T2 construct: expressed in transfected cells
T2 sequence (P01116 1-188 isoform P01116-2 G12D): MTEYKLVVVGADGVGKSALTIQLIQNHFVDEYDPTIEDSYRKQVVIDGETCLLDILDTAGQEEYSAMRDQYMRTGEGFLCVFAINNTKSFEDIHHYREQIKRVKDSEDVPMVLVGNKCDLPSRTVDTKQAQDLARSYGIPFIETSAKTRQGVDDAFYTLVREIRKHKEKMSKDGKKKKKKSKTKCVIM
Procedure: NanoLuc® luciferase was used as the energy donor, and NanoBRET™ 618 fluorescent ligand labeled with the HaloTag® protein was used as the energy acceptor to detect protein-protein interactions in living cells. AD293 stable cells transfected with KRAS G12D-NanoLuc® luciferase and cRAF RBD-HaloTag® tag protein were seeded in 96-well plates at a cell density of 1×10^4 cells/well. Except for wells with medium added as a blank control, NanoBRET™ 618 fluorescent ligand was added to all other wells, and the plates were cultured overnight in a cell culture incubator. […] The luminescence data were calculated and converted into inhibition percent. The inhibition percent of KRAS G12D-cRAF binding was calculated according to the following formula: Inhibition Percent = (MaxValue−MeasuredValue)/(MaxValue−Blank) × 100% [formula] […] Curve fitting was performed using GraphPad Prism software to obtain IC50 values, see Table 1.

[5] = SW620 cells, 96 h incubation, Cell-titer GLO
[6] = AGS cells, 96 h incubation, Cell-titer GLO

SMILES | IC50 [1] [nM] | IC50 [2] [nM] | IC50 ([3]; NanoBRET KRAS G12V) [nM] | IC50 ([4]; NanoBRET KRAS G12D) [nM] | IC50 [1, 5] [nM] | IC50 [2, 6] [nM] | IC50 ([3]; read-out: NanoBRET KRAS G12V) [nM] | IC50 ([4]; read-out: NanoBRET KRAS G12D) [nM]
C[C@@H]1OCCCn2c(c3c4cc(ccc42)-c2csc(n2)C[C@H](NC(=O)[C@H]2C[C@@H]2C)C(=O)N2CCC[C@H](N2)C(=O)OCC(C)(C)C3)-c2cc(N3CCN(C)CC3)cnc21 [Example 1, (1S,2S)-2-methyl-N-((1^5S,6^3S,4S,Z)-1^5,10,10-trimethyl-1^2-(4-methylpiperazin-1-yl)-5,7-dioxo-1 ^8,1^9,6^1,6^2,6^3,6^4,6^5,6^6-octahydro-1^5H,1^7-oxa-1(13,15)-pyrido[3',2':7,8][1,5]oxazonino[5,6-a]indola-2(4,2)-thiazola-6(1,3)-pyridazinacycloundecaphane-4-yl)cyclopropane-1-carboxamide] | 0.54 | 7.86 | 29.9 | 6.1 | – | – | – | –
C[C@H]1C[C@@H]1C(=O)N[C@H]1Cc2nc(cs2)-c2ccc3c(c2)c(c2n3CCCOCc3ncc(N4CCN(C)CC4)cc3-2)CC(C)(C)COC(=O)[C@@H]2CCCN(N2)C1=O [Example 2, (1S,2S)-N-((6^3S,4S,Z)-10,10-dimethyl-1^2-(4-methylpiperazin-1-yl)-5,7-dioxo-1^8,1^9,6^1,6^2,6^3,6^4,6^5 ,6^6-octahydro-1^5H,1^7H-8-oxa-1(13,15)-pyrido[3',2':7,8][1,5]oxazonino[5,6-a]indola-2(4,2)-thiazola-6(1,3)-pyridazinacycloundecaphane-4-yl)-2-methylcyclopropane-1-carboxamide] | 1.56 | 8.7 | 206 | 29.1 | – | – | – | –
C[C@H]1C[C@@H]1C(=O)N[C@H]1Cc2nc(cs2)-c2ccc3c(c2)c(c2n3[C@@H](C)CCOCc3ncc(N4CCN(C)CC4)cc3-2)CC(C)(C)COC(=O)[C@@H]2CCCN(N2)C1=O [Example 4, (1S,2S)-2-methyl-N-((1^9S,6^3S,4S,Z)-1^9,10,10-trimethyl-1^2-(4-methylpiperazin-1-yl)-5,7-dioxo-1 ^8,1^9,6^1,6^2,6^3,6^4,6^5,6^6-octahydro-1^5H,1^7H-8-oxa-1(13,15)-pyrido[3',2':7,8][1,5]oxazonino[5,6-a]indola-2(4,2)-thiazola-6(1,3)-pyridazinacycloundecaphane-4-yl)cyclopropane-1-carboxamide] | 6.2 | 51.9 | 651 | 155 | – | – | – | –
C[C@@H]1OCC[C@H](C)n2c(c3c4cc(ccc42)-c2csc(n2)C[C@H](NC(=O)[C@H]2C[C@@H]2C)C(=O)N2CCC[C@H](N2)C(=O)OCC(C)(C)C3)-c2cc(N3CCN(C)CC3)cnc21 [Example 5, (1S,2S)-2-methyl-N-((1^5S,1^9S,6^3S,4S,Z)-1^5,1^9,10,10-tetramethyl-1^2-(4-methylpiperazin-1-yl)-5,7-dioxo-1^8,1^9,6^1,6^2,6^3,6^4,6^5,6^6-octahydro-1^5H,1^7H-8-oxa-1(13,15)-pyrido[3',2':7,8][1,5]oxazonino[5,6-a]indola-2(4,2)-thiazola-6(1,3)-pyridazinacycloundecaphane-4-yl)cyclopropane-1-carboxamide] | 1.08 | 6.92 | 78.8 | 25.9 | – | – | – | –
CCN1CCN(c2cnc3c(c2)-c2c4c5cc(ccc5n2CCCOC3C)-c2csc(n2)CC(NC(=O)C2CC2C)C(=O)N2CCCC(N2)C(=O)OCC(C)(C)C4)CC1 [Example 21, (1S,2S)-N-((1^5S,6^3S,4S,Z)-12-(4-ethylpiperazin-1-yl)-1^5,10,10-trimethyl-5,7-dioxo-1^8,1^9,6^1,6^2,6^3 ,6^4,6^5,6^6-octahydro-1^5H,1^7H-8-oxa-1(13,15)-pyrido[3',2':7,8][1,5]oxazonino[5,6-a]indola-2(4,2)-thiazola-6(1,3)-pyridazinacycloundecaphane-4-yl)-2-methylcyclopropane-1-carboxamide] | – | – | – | – | 1.46 | 2.19 | 15.1 | 3.95
COCCN1CCN(c2cnc3c(c2)-c2c4c5cc(ccc5n2CCCOC3C)-c2csc(n2)CC(NC(=O)C2CC2C)C(=O)N2CCCC(N2)C(=O)OCC(C)(C)C4)CC1 [Example 22, (1S,2S)-N-((1^5S,6^3S,4S,Z)-1^2-(4-(2-methoxyethyl)piperazin-1-yl)-1^5,10,10-trimethyl-5,7-dioxo-1 ^8,1^9,6^1,6^2,6^3,6^4,6^5,6^6-octahydro-1^5H,1^7H-8-oxa-1(13,15)-pyrido[3',2':7,8][1,5]oxazonino[5,6-a]indola-2(4,2)-thiazola-6(1,3)-pyridazinacycloundecaphane-4-yl)-2-methylcyclopropane-1-carboxamide] | – | – | – | – | 1.03 | 2.62 | 22.9 | 6.6
CCN1CCN(c2cnc3c(c2)-c2c4c5cc(ccc5n2CCCOC3C)-c2csc(n2)CC(NC(=O)C23CC(C)(C2)C3)C(=O)N2CCCC(N2)C(=O)OCC(C)(C)C4)CC1 [Example 37, N-((1^5S,6^3S,4S,Z)-1^2-(4-ethylpiperazin-1-yl)-1^5,10,10-trimethyl-5,7-dioxo-1^8,1^9,6^1,6^2,6^3,6^4,6^56^6-octahydro-1^5H,1^7H-8-oxa-1(13,15)-pyrido[3',2':7,8][1,5]oxazonino[5,6-a]indola-2(4,2)-thiazola-6(1,3)-pyridazinacycloundecaphane-4-yl)-3-methylbicyclo[1.1.1]pentane-1-carboxamide] | – | – | – | – | 1.02 | 4.28 | 22.4 | 5.32
COCCN1CCN(c2cnc3c(c2)-c2c4c5cc(ccc5n2CCCOC3C)-c2csc(n2)CC(NC(=O)C23CC(C)(C2)C3)C(=O)N2CCCC(N2)C(=O)OCC(C)(C)C4)CC1 [Example 38, N-((1^5S,6^3S,4S,Z)-1^2-(4-(2-methoxyethyl)piperazin-1-yl)-1^5,10,10-trimethyl-5,7-dioxo-1^8,1^9,6^1,6 ^2,6^3,6^4,6^5,6^6-octahydro-1^5H,1^7H-8-oxa-1(13,15)-pyrido[3',2':7,8][1,5]oxazonino[5,6-a]indola-2(4 ,2)-thiazola-6(1,3)-pyridazinacycloundecaphane-4-yl)-3-methylbicyclo[1.1.1]pentane-1-carboxamide] | – | – | – | – | 1.72 | 4.2 | 31.9 | 8.6
CC(C)[C@@H](C(=O)N[C@H]1Cc2nc(cs2)-c2ccc3c(c2)c(c2n3CCCO[C@@H](C)c3ncc(N4CCN(C)CC4)cc3-2)CC(C)(C)COC(=O)[C@H]2NN(C1=O)C1CC2C1)N(C)C(=O)N(C)C [Example 204, (2S)-3-methyl-N-((1^5S,6^4S,4S,Z)-1^5,10,10-trimethyl-1^2-(4-methylpiperazin-1-yl)-5,7-dioxo-1^8,1^9-dihydro-1^5H,1^7H-8-oxa-6^2,6^3-diaza-1(13,15)-pyrido[3',2':7,8][1,5]oxazonino[5,6-a]indola-2(4,2) -thiazola-6(2,4)-bicyclo[3.1.1]heptanacycloundecaphane-4-yl)-2-(1,3,3-trimethylureido)butanamide] | – | – | – | – | 0.2 | 0.4 | – | –

Reference: patent EP4800018A1, “PAN-KRAS INHIBITOR AND USE THEREOF IN MEDICINES” (Betta Pharmaceuticals Co., Ltd., priority 2023, dated 2025)
